Results as given in ChEMBL document CHEMBL1201862, “PubChem BioAssay data set” (2004).
Active and inactive are the calls of the source.

Experiments:
[1] = cells; type: functional, cell-based
[2] = cells; type: functional, cell-based; remark: listed apart in the source
[3] = test system: HEK293; experiment: SAR Analysis of small molecule inhibitors of T-cell specific antigen receptor-induced NF-kB activation in a HEK-293T cell line using a luminescence assay - Set 2. [Related pubchem assays (depositor defined):AID435003, AID435012, AID489026]; type: functional, cell-based; settings: Homo sapiens
[4] = test system: INS1; experiment: beta cell apoptosis inhibitors, cytokine rescue, dose response, luminescence, retest (AID 449756); type: functional, cell-based; settings: Rattus norvegicus;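 note: cell death triggered by IL-1 beta plus TNF-alpha plus IFN-gamma mixture; protective hits raise ATP signal compared with cytokine alone wells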
[5] = HepG2 cell cytotoxicity, dose response, cytotoxicity control for Shn3 inhibitor project, CellTiter-Glo, cherry-picked (AID 624134); type: functional, cell-based
[6] = biological target: T1, Heat shock factor protein 1 (Mus musculus, UniProt P38532); experiment: inhibition of MG132-induced HSE-luciferase signal, confirmation, cell-based, NIH3T3, luminescence, dose retest (AID 2382); type: functional;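 note: NIH3T3 fibroblasts with HSF1-driven luciferase reporter stressed by proteasome inhibitor MG132; luminescence from HSF1-driven luciferase expression after 8 hours of MG132 stress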
T1 sequence (P38532 whole entry): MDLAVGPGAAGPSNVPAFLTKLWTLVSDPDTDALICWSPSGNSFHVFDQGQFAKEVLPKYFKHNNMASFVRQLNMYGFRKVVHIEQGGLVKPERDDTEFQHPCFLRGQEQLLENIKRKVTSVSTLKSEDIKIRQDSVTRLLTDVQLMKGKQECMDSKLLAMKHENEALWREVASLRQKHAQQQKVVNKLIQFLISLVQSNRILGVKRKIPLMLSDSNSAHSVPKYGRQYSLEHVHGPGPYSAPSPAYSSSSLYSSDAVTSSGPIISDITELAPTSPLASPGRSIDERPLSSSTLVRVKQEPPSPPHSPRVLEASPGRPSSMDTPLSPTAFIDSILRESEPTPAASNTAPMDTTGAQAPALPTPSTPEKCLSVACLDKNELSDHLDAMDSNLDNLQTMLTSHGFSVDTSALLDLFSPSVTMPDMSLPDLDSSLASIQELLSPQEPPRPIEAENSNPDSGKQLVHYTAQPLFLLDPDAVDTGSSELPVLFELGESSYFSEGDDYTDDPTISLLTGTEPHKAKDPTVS

[7] = biological target: T2, Sentrin-specific protease 7 (Homo sapiens, UniProt Q9BQF6); type: functional;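 note: Luminescence-based dose-response confirmation of ultra-high-throughput screening hits, measuring inhibition of SENP7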
T2 sequence (Q9BQF6 whole entry): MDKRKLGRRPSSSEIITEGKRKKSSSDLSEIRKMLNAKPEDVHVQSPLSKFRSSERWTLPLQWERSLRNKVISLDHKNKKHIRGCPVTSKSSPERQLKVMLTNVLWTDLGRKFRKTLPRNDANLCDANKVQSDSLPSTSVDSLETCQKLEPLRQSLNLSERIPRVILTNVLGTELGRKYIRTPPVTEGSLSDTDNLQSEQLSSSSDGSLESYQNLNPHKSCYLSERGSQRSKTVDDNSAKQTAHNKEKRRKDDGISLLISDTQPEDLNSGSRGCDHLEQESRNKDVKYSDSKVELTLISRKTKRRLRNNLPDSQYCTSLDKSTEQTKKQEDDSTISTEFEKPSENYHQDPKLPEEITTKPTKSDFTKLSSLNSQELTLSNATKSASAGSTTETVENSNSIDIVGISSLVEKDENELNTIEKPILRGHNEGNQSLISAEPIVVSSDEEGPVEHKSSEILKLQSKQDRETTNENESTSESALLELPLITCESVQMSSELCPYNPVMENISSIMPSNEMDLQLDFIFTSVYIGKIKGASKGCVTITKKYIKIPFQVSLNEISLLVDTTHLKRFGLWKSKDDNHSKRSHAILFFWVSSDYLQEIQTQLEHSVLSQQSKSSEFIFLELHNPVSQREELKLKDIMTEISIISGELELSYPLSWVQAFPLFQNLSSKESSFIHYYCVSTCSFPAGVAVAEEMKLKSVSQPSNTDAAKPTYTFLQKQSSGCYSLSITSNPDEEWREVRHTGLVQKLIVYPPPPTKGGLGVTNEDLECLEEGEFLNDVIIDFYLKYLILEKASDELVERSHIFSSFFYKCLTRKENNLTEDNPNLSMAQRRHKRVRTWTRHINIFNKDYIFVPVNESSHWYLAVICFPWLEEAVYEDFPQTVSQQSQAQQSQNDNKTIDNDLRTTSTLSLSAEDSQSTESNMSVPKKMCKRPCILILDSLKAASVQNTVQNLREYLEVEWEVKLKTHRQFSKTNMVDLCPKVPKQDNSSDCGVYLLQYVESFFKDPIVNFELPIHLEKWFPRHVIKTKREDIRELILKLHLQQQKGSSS

[8] = biological target: T3, Sentrin-specific protease 8 (Homo sapiens, UniProt Q96LD8); type: functional;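 note: luminescence read-out of SENP8 inhibition, dose-response confirmation following an ultra-high-throughput screen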
T3 sequence (Q96LD8 whole entry): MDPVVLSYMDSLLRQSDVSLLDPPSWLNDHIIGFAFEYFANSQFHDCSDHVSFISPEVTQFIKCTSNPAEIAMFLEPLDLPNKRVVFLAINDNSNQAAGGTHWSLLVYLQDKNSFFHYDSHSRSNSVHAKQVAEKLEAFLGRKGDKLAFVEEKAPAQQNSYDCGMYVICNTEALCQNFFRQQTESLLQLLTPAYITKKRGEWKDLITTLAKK

| SMILES | EC50 [1] | EC50 [2] | IC50 [3] | AC50 [4] | AC50 [5] | EC50 [6] | IC50 [7] | IC50 [8] |
| --- | --- | --- | --- | --- | --- | --- | --- | --- |
| CCCCC(=O)NC(c1ccc(N(CC)CC)cc1)c1ccc2cccnc2c1O (stereo not drawn) | 3.08 µM (active) | > 350 µM (not active) | 13 µM (active) | 0.38 µM (active) | 1.2 µM (active) | – | – | – |
| CCOc1cccc(/C=N/NC(=S)Nc2ccccc2[N+](=O)[O-])c1O | – | – | – | – | – | 3.56 µM (active) | 2.65 µM (active) | 12.8 µM (active) |
